Measurements taken from EP2340020B1, “MANGANESE AND COBALT COMPLEXES, THEIR PREPARATION AND USE” (GP Investimenti S.r.l., priority 2008, dated 2010).

Assays:
RAW 264.7 macrophages = assay: Toxicity: viability of macrophage cultures; type: cell-based
Method: The viability of the cultures of RAW 264.7 macrophages was measured at various intervals (24, 48, 72 h) after adding increasing concentrations of the compound of Example 2 (10^-7 M- 10^-4 M).

[1] = system: rat aorta smooth muscle cells (RASM); assay: Protection from oxidative stress: MDA levels, O2^- generated by fMLP-stimulated RAW 264.7 macrophages; type: cell-based; details: RAW 264.7 macrophages stimulated with fMLP; comparable with, or even greater than SOD
Method: (§1) The primary targets of the cytotoxic action of ROS are the membrane lipids, which are peroxidised with the formation of malondialdehyde (MDA). This can be measured spectrophotometrically using the chromogen that is generated from the reaction of MDA with thiobarbituric acid. This measurement is consequently a reliable indicator of ROS-induced cell damage.
(§2) Cultures of rat aorta smooth muscle cells (RASM) were prepared in a medium in which O2^- was generated both by means of the xanthine oxidase/xanthine enzymatic system and by RAW 264.7 macrophages stimulation with fMLP (see the two diagrams shown below, respectively).

[2] = system: rat aorta smooth muscle cells (RASM); assay: Protection from oxidative stress: MDA levels, O2^- generated by xanthine oxidase/xanthine; type: cell-based; details: xanthine oxidase/xanthine system; comparable with, or even greater than SOD
Method: as §1, §2

[3] = system: fMLP-stimulated RAW 264.7 macrophages; assay: O2^- scavenging in cultures of fMLP-stimulated macrophages, Fe(II)cytC oxidation; type: cell-based
Text: The chemotactic peptide fMLP triggers a specific inflammatory activation of the macrophages, which produce high levels of O2^-, that are measurable spectrophotometrically by means of the oxidation of the Fe(II)cytC chromogen.

xanthine oxidase enzyme = assay: Uric acid levels in the xanthine/xanthine oxidase system (check for enzyme inhibition); type: biochemical
xanthine oxidase enzyme, sequence (P47989 whole entry, species assumed): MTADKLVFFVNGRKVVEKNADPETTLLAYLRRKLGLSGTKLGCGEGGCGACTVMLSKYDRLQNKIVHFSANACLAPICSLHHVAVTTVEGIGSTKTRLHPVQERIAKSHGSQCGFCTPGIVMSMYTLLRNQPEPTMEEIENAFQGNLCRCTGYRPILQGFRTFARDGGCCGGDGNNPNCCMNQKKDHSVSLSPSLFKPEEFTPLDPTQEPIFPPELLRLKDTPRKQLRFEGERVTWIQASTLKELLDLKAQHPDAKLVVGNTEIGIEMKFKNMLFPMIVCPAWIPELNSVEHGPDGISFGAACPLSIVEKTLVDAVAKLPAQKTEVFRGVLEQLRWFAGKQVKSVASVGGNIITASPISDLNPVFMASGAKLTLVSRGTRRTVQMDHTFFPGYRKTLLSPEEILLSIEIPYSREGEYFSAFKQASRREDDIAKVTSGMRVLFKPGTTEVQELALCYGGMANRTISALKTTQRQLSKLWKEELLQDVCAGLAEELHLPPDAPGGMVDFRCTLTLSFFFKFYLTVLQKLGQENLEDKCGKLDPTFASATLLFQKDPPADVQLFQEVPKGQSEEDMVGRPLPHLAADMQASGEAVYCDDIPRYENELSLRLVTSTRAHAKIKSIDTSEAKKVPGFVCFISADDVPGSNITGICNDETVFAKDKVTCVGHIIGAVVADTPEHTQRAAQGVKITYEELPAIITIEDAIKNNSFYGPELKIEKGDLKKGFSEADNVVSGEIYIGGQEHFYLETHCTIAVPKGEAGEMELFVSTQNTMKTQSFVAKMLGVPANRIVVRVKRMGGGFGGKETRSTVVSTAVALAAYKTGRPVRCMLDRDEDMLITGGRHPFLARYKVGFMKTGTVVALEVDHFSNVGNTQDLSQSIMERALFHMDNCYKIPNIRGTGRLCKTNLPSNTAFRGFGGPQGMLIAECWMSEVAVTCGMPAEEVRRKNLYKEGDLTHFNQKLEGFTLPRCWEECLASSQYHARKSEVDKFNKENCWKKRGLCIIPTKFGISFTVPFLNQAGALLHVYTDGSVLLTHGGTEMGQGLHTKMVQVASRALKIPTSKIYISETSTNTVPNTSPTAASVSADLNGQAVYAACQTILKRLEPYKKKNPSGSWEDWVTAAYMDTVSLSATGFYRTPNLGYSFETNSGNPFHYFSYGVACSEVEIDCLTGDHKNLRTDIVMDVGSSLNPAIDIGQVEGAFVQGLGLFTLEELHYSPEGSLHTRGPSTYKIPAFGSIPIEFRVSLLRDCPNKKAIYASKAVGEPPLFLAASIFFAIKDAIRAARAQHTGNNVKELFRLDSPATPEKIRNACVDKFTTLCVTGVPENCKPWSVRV
Text: (§3) In vitro, the xanthine oxidase enzyme metabolises the xanthine substrate and generates uric acid and O2 as products of the reaction, which can be measured spectrophotometrically by oxidation of the NBT chromogen.

O2^- = O2^- scavenging in a cell-free system (xanthine/xanthine oxidase), NBT oxidation; type: biochemical; details: compound at 10^-5 M; baseline 294±12 sec.; p<0.01
Text: as §3

Question: Which results are given for “Mn(4,10-dimethyl-1,4,7,10-tetraazacyclododecane-1,7-diacetate) 2H2O) [Example 2]”?
Answer: cytotoxicity (viability of the cultures) (RAW 264.7 macrophages; 10^-7 M-10^-4 M, 24, 48, 72 h, effect only after 72 hours and at 10^-5-10^-4 M): mildly cytotoxic only after incubation times of 72 hours and at the greatest concentrations; cell toxicity at active concentrations (RAW 264.7 macrophages; concentrations of the order of 0.1 milligrams/litre): no cell toxicity; levels of MDA in the RASM cells [1]: significantly reduced; levels of MDA in the RASM cells [2]: significantly reduced; levels of oxidised Fe(II)cytC ([3]; 10^-9-10^-6 M): dose-dependent, significant reduction; activity when pre-incubated and then removed from the cell cultures before adding the activating stimulus ([3]; pre-incubation, removal before fMLP): remains active; IC50 ([3]; reduction of O2^- generated by fMLP-activated macrophages, read-out: 50% inhibiting concentration (IC50%)): 60 nM; levels of uric acid (xanthine oxidase enzyme): does not reduce the levels of uric acid; time taken to oxidise 50% of the NBT (O2^-): 390 ± 16 s

Question: MnSO4 [reference compound] was tested. Which “effectiveness in reducing O2^- levels generated by fMLP-activated macrophages” value ([3]; Figure 2) did it give?
Answer: entirely ineffective
